Like-named read-outs stand apart in the source and are kept apart here.
How the values were obtained:
[1] = Therapeutic drug monitoring of teicoplanin trough concentration (Cmin) during treatment, LC-MS/MS; assay type: in vivo, human; settings: for patients with TDM 10–20 mg/L At 8-14d, N (%) / patients with TDM < 10 mg/L At 8-14d, N (%) / patients with TDM > 20 mg/L At 8-14d, N (%) / TDM At 8-14d (teicoplanin trough concentration): 8–14 days after first dose; for TDM At 8-14d (teicoplanin trough concentration) / TDM At 3d (teicoplanin trough concentration) / TDM ≤ 7d (teicoplanin trough concentration) / TDM ≥ 15d (teicoplanin trough concentration): median [IQR], LC-MS/MS; for patients with TDM 10–20 mg/L At 3d, N (%) / patients with TDM < 10 mg/L At 3d, N (%) / patients with TDM > 20 mg/L At 3d, N (%) / TDM At 3d (teicoplanin trough concentration): 3 days after first dose
Experimental: Teicoplanin (Targocid, Sanofi, Dublin, Ireland) was administered intravenously for 30 min. The prescribed dose regimens were at the discretion of treating physicians, and the recommended regimens were not always followed.
Blood samples (5 mL) were collected from the elbow into ethylenediaminetetraacetic acid-containing Vacutainers® (Becton Dickinson, Milan, Italy) in the morning before teicoplanin administration and after drug withdrawal. Samples were promptly refrigerated and centrifuged at 2500 × g for 10 min before 2 mL of supernatant was preserved at -20 °C for subsequent analysis. Teicoplanin concentrations were determined using liquid chromatography-tandem mass spectrometry. The linear range of the method was 1.0–100.0 mg/L, and the lower limit of quantification was 1.0 mg/L. The relative standard deviation of intra- and inter-batch precision was ≤ 10%.
Teicoplanin concentrations were dynamically monitored. Concentrations at 3, ≤ 7, 8–14, and ≥ 15 days after the first dose and within 2 h of the next scheduled dose were recorded as TDM3d, TDM≤7d, TDM8-14d, and TDM≥15d, respectively. Concentrations at 3, ≤ 7, 8–14, and ≥ 15 days after the last teicoplanin dose (withdrawal) were recorded as TDMw3d, TDMw≤7d, TDMw8-14d, and TDMw≥15d. respectively (Fig. 1a). The Cmin target was ≥ 10 mg/L [6, 7, 23]; a concentration < 10 mg/L was considered suboptimal. Average TDM (TDMa) was defined as the mean Cmin after 3 days of treatment.

[2] = in vivo, cited from earlier work
Description: There are few studies on the optimal dose regimen and target concentration of teicoplanin in older adults.

[3] = LR-A + MR-A (200 mg once daily, then 200 mg once daily)
[4] = LR-B + MR-A (400 mg once daily, then 200 mg once daily)
[5] = LR-B + MR-B (400 mg once daily, then 400 mg once daily)
[6] = LR-C + MR-B (400 mg at 12-h intervals, then 400 mg once daily)
[7] = LR-C + MR-C (400 mg at 12-h intervals, then 400 mg twice daily)
[8] = ≤ 7 days after first dose, LR-A + MR-A
[9] = ≤ 7 days after first dose, LR-B + MR-A
[10] = ≤ 7 days after first dose, LR-B + MR-B
[11] = ≤ 7 days after first dose, LR-C + MR-B
[12] = ≤ 7 days after first dose, LR-C + MR-C
[13] = ≥ 15 days after first dose, LR-A + MR-A
[14] = ≥ 15 days after first dose, LR-B + MR-A
[15] = ≥ 15 days after first dose, LR-B + MR-B
[16] = ≥ 15 days after first dose, LR-C + MR-B

## Teicoplanin
[1]; LR-A + MR-A
  patients with TDM 10–20 mg/L At 8-14d, N (%): 20(41.7)
  patients with TDM < 10 mg/L At 8-14d, N (%): 22(45.8)
  patients with TDM > 20 mg/L At 8-14d, N (%): 6(12.5)
  patients with TDM 10–20 mg/L At 3d, N (%): 0
  patients with TDM < 10 mg/L At 3d, N (%): 16(100)
  patients with TDM > 20 mg/L At 3d, N (%): 0
[1]; [3]
  TDM At 8-14d (teicoplanin trough concentration): 10.4[7.3,17.8] mg/L
  TDM At 3d (teicoplanin trough concentration): 5.4[3.0,7.7] mg/L
[1]; LR-B + MR-A
  patients with TDM 10–20 mg/L At 8-14d, N (%): 25(53.2)
  patients with TDM < 10 mg/L At 8-14d, N (%): 16(34.0)
  patients with TDM > 20 mg/L At 8-14d, N (%): 6(12.8)
  patients with TDM 10–20 mg/L At 3d, N (%): 2(10.5)
  patients with TDM < 10 mg/L At 3d, N (%): 17(89.5)
  patients with TDM > 20 mg/L At 3d, N (%): 0
[1]; [4]
  TDM At 8-14d (teicoplanin trough concentration): 11.0[7.3,15.4] mg/L
  TDM At 3d (teicoplanin trough concentration): 6.3[4.4,7.9] mg/L
[1]; LR-B + MR-B
  patients with TDM 10–20 mg/L At 8-14d, N (%): 2(50.0)
  patients with TDM < 10 mg/L At 8-14d, N (%): 1(25.0)
  patients with TDM > 20 mg/L At 8-14d, N (%): 1(25.0)
  patients with TDM 10–20 mg/L At 3d, N (%): 1(16.7)
  patients with TDM < 10 mg/L At 3d, N (%): 3(50.0)
  patients with TDM > 20 mg/L At 3d, N (%): 2(33.3)
[1]; [5]
  TDM At 8-14d (teicoplanin trough concentration): 12.8[9.0,21.5] mg/L
  TDM At 3d (teicoplanin trough concentration): 11.1[8.1,22.2] mg/L
[1]; LR-C + MR-B
  patients with TDM 10–20 mg/L At 8-14d, N (%): 8(57.2)
  patients with TDM < 10 mg/L At 8-14d, N (%): 5(35.7)
  patients with TDM > 20 mg/L At 8-14d, N (%): 1(7.1)
  patients with TDM 10–20 mg/L At 3d, N (%): 5(62.5)
  patients with TDM < 10 mg/L At 3d, N (%): 3(37.5)
  patients with TDM > 20 mg/L At 3d, N (%): 0
[1]; [6]
  TDM At 8-14d (teicoplanin trough concentration): 14.16[8.9,16.4] mg/L
  TDM At 3d (teicoplanin trough concentration): 11.0[7.0,13.3] mg/L
[1]; LR-C + MR-C
  patients with TDM 10–20 mg/L At 8-14d, N (%): 3(37.5)
  patients with TDM < 10 mg/L At 8-14d, N (%): 0
  patients with TDM > 20 mg/L At 8-14d, N (%): 5(62.5)
  patients with TDM 10–20 mg/L At 3d, N (%): 7(50.0)
  patients with TDM < 10 mg/L At 3d, N (%): 3(21.4)
  patients with TDM > 20 mg/L At 3d, N (%): 4(28.6)
[1]; [7]
  TDM At 8-14d (teicoplanin trough concentration): 21.2[16.8,27.4] mg/L
  TDM At 3d (teicoplanin trough concentration): 14.4[10.7,21.1] mg/L
[1]; all patients (N = 204), iv
  TDM At 8-14d (teicoplanin trough concentration): 11.1[8.5,17.6] mg/L
  TDM At 3d (teicoplanin trough concentration): 7.7[5.6,12.4] mg/L
[1]; TDM8-14d, LR-A + MR-A regimen
  target concentration achievement rate (≥ 10 mg/L): 54.2%
[1]; TDM8-14d, LR-B + MR-A regimen
  target concentration achievement rate (≥ 10 mg/L): 66.0%
[1]; TDM8-14d, LR-B + MR-B regimen
  target concentration achievement rate (≥ 10 mg/L): 75.0%
[1]; TDM8-14d, LR-C + MR-C regimen
  target concentration achievement rate (≥ 10 mg/L): 100%
[1]; TDM3d, LR-A + MR-A regimen
  target concentration achievement rate (≥ 10 mg/L): 0%
[1]; TDM3d, LR-B + MR-A regimen
  target concentration achievement rate (≥ 10 mg/L): 10.5%
[1]; TDM3d, LR-B + MR-B regimen
  target concentration achievement rate (≥ 10 mg/L): 50.0%
[1]; TDM3d, LR-C + MR-B regimen
  target concentration achievement rate (≥ 10 mg/L): 62.5%
[1]; TDM3d, LR-C + MR-C regimen
  target concentration achievement rate (≥ 10 mg/L): 78.6%
[1]; TDM≤7d, LR-A + MR-A regimen
  target concentration achievement rate (≥ 10 mg/L): 18.3%
[1]; TDM≤7d, LR-B + MR-A regimen
  target concentration achievement rate (≥ 10 mg/L): 24.1%
[1]; TDM≤7d, LR-B + MR-B regimen
  target concentration achievement rate (≥ 10 mg/L): 57.2%
[1]; TDM≤7d, LR-C + MR-B regimen
  target concentration achievement rate (≥ 10 mg/L): 56.2%
[1]; TDM≤7d, LR-C + MR-C regimen
  target concentration achievement rate (≥ 10 mg/L): 85.7%
[1]; TDM≥15d, LR-A + MR-A regimen
  target concentration achievement rate (≥ 10 mg/L): 77.8%
[1]; TDM≥15d, LR-B + MR-A regimen
  target concentration achievement rate (≥ 10 mg/L): 84.6%
[1]; TDM≥15d, LR-B + MR-B regimen
  target concentration achievement rate (≥ 10 mg/L): 100%
[1]; TDM≥15d, LR-C + MR-B regimen
  target concentration achievement rate (≥ 10 mg/L): 100%
[1]; after 14 days of administration, all patients
  patients achieving therapeutic concentrations: more than 80%
[1]; [8]
  patients with TDM 10–20 mg/L ≤ 7d, N (%): 6(12.2)
  patients with TDM < 10 mg/L ≤ 7d, N (%): 40(81.7)
  patients with TDM > 20 mg/L ≤ 7d, N (%): 3(6.1)
[1]; ≤ 7 days after first dose, LR-A + MR-A (200 mg once daily, then 200 mg once daily)
  TDM ≤ 7d (teicoplanin trough concentration): 6.4[4.7,8.2] mg/L
[1]; [9]
  patients with TDM 10–20 mg/L ≤ 7d, N (%): 10(18.5)
  patients with TDM < 10 mg/L ≤ 7d, N (%): 41(75.9)
  patients with TDM > 20 mg/L ≤ 7d, N (%): 3(5.6)
[1]; ≤ 7 days after first dose, LR-B + MR-A (400 mg once daily, then 200 mg once daily)
  TDM ≤ 7d (teicoplanin trough concentration): 7.2[5.5,10.0] mg/L
[1]; [10]
  patients with TDM 10–20 mg/L ≤ 7d, N (%): 2(28.6)
  patients with TDM < 10 mg/L ≤ 7d, N (%): 3(42.8)
  patients with TDM > 20 mg/L ≤ 7d, N (%): 2(28.6)
[1]; ≤ 7 days after first dose, LR-B + MR-B (400 mg once daily, then 400 mg once daily)
  TDM ≤ 7d (teicoplanin trough concentration): 12.42[8.3,22.0] mg/L
[1]; [11]
  patients with TDM 10–20 mg/L ≤ 7d, N (%): 9(56.2)
  patients with TDM < 10 mg/L ≤ 7d, N (%): 7(43.8)
  patients with TDM > 20 mg/L ≤ 7d, N (%): 0
[1]; ≤ 7 days after first dose, LR-C + MR-B (400 mg at 12-h intervals, then 400 mg once daily)
  TDM ≤ 7d (teicoplanin trough concentration): 11.0[7.0,12.6] mg/L
[1]; [12]
  patients with TDM 10–20 mg/L ≤ 7d, N (%): 8(57.1)
  patients with TDM < 10 mg/L ≤ 7d, N (%): 2(14.3)
  patients with TDM > 20 mg/L ≤ 7d, N (%): 4(28.6)
[1]; ≤ 7 days after first dose, LR-C + MR-C (400 mg at 12-h intervals, then 400 mg twice daily)
  TDM ≤ 7d (teicoplanin trough concentration): 14.4[12.0,21.2] mg/L
[1]; ≤ 7 days after first dose, all patients (N = 204), iv
  TDM ≤ 7d (teicoplanin trough concentration): 7.6[5.6,12.2] mg/L
[1]; ≤ 7 days after first dose, all patients, 93 patients
  patients having suboptimal concentrations (< 10 mg/L), TDM≤7d: 66.4%
[1]; [13]
  patients with TDM 10–20 mg/L ≥ 15d, N (%): 16(59.3)
  patients with TDM < 10 mg/L ≥ 15d, N (%): 6(22.2)
  patients with TDM > 20 mg/L ≥ 15d, N (%): 5(18.5)
[1]; ≥ 15 days after first dose, LR-A + MR-A (200 mg once daily, then 200 mg once daily)
  TDM ≥ 15d (teicoplanin trough concentration): 12.7[10.1,17.4] mg/L
[1]; [14]
  patients with TDM 10–20 mg/L ≥ 15d, N (%): 15(57.7)
  patients with TDM < 10 mg/L ≥ 15d, N (%): 4(15.4)
  patients with TDM > 20 mg/L ≥ 15d, N (%): 7(26.9)
[1]; ≥ 15 days after first dose, LR-B + MR-A (400 mg once daily, then 200 mg once daily)
  TDM ≥ 15d (teicoplanin trough concentration): 15.7[11.9,22.0] mg/L
[1]; [15]
  patients with TDM 10–20 mg/L ≥ 15d, N (%): 1(50.0)
  patients with TDM < 10 mg/L ≥ 15d, N (%): 0
  patients with TDM > 20 mg/L ≥ 15d, N (%): 1(50.0)
[1]; ≥ 15 days after first dose, LR-B + MR-B (400 mg once daily, then 400 mg once daily)
  TDM ≥ 15d (teicoplanin trough concentration): 20.3[13.8,20.4] mg/L
[1]; [16]
  patients with TDM 10–20 mg/L ≥ 15d, N (%): 1(33.3)
  patients with TDM < 10 mg/L ≥ 15d, N (%): 0
  patients with TDM > 20 mg/L ≥ 15d, N (%): 2(66.7)
[1]; ≥ 15 days after first dose, LR-C + MR-B (400 mg at 12-h intervals, then 400 mg once daily)
  TDM ≥ 15d (teicoplanin trough concentration): 23.0[19.4,28.6] mg/L
[1]; ≥ 15 days after first dose, all patients (N = 204), iv
  TDM ≥ 15d (teicoplanin trough concentration): 15.8[11.0,21.8] mg/L
[1]; ≥ 15 days after first dose, all patients, 10 patients
  patients having suboptimal concentrations (< 10 mg/L), TDM≥15d: 17.0%
[2]; human
  average elimination half-life: 107 h
  half-life of teicoplanin: 71 to 80 h
[2]
  half-life of teicoplanin: 71 to 163 h

From PMC11149339, “Necessity for higher teicoplanin doses in older adults: a multicenter prospective observational study in China” (BMC Geriatrics, 2024)
